Results taken from ChEMBL document CHEMBL4819108, “A trio of quinoline-isoniazid-phthalimide with promising antiplasmodial potential: Synthesis, in-vitro evaluation and heme-polymerization inhibition studies” (Bioorg Med Chem, 2021).

What was measured:
Plasmodium falciparum [1] = test: Antimalarial activity against Plasmodium falciparum RKL9 infected in human RBC assessed as reduction in parasite growth incubated for 24 hrs by giemsa staining based assay; format: functional, organism-based; conditions: RKL9, Erythrocyte
[2] = Selectivity index, ratio of IC50 for African green monkey Vero cells to IC50 for antiplasmodial activity against CQ-resistant Plasmodium falciparum W2; format: toxicity; conditions: read-out: Ratio IC50
Plasmodium falciparum [3] = test: Antiplasmodial activity against CQ-resistant Plasmodium falciparum W2; format: functional, organism-based
Vero = test: Cytotoxicity against African green monkey Vero cells; format: cell-based; conditions: Chlorocebus sabaeus
Plasmodium falciparum [4] = test: Antimalarial activity against Plasmodium falciparum 7G8; format: functional, organism-based
Heme [5] = test: Binding affinity to monomeric heme in HEPES buffer at pH 7.4
Heme [6] = test: Binding affinity to monomeric heme in MES buffer at pH 5.6

| Structure (SMILES) | selectivity ratio [2] | IC50 (Plasmodium falciparum [3]) | IC50 (Vero) | also measured |
| --- | --- | --- | --- | --- |
| O=C(N/N=C/c1ccc(O)cc1)c1ccncc1 | – | – | – | IC50 (Plasmodium falciparum [1]): 42.2 nM |
| O=C(NCCCNc1ccnc2cc(Cl)ccc12)c1ccc2c(c1)C(=O)N(NC(=O)c1ccncc1)C2=O | 366 | 439 nM | – | – |
| O=C(CN1C(=O)c2ccccc2C1=O)NNC(=O)c1ccncc1 | 30.8 | > 10000 nM | > 308000 nM | – |
| O=C(NNC(=O)c1ccc(N2C(=O)c3ccccc3C2=O)cc1)c1ccncc1 | 25.8 | > 10000 nM | > 259000 nM | – |
| O=C(NNC(=O)c1ccc2c(c1)C(=O)N(CCCCCCCCNc1ccnc3cc(Cl)ccc13)C2=O)c1ccncc1 | 2970 | 43.3 nM | – | – |
| O=C(NNC(=O)c1ccc2c(c1)C(=O)N(CCCNc1ccnc3cc(Cl)ccc13)C2=O)c1ccncc1 | 289 | 412 nM | – | – |
| COc1ccc(/C=N/NC(=O)c2ccncc2)cc1O | – | – | – | IC50 (Plasmodium falciparum [1]): 40.2 nM |
| O=C(O)c1ccc2c(c1)C(=O)N(CCCCCCNc1ccnc3cc(Cl)ccc13)C2=O | 805 | 30.2 nM | – | – |
| O=C(O)c1ccc2c(c1)C(=O)N(CCCNc1ccnc3cc(Cl)ccc13)C2=O | 487 | 496 nM | – | – |
| O=C(NNC(=O)c1ccc2c(c1)C(=O)N(CCNc1ccnc3cc(Cl)ccc13)C2=O)c1ccncc1 | 138 | 1400 nM | > 194000 nM | – |
| O=C(NCCNc1ccnc2cc(Cl)ccc12)c1ccc2c(c1)C(=O)N(NC(=O)c1ccncc1)C2=O | 144 | 445 nM | – | – |
| O=C(O)c1ccc2c(c1)C(=O)N(CCCCCCCCNc1ccnc3cc(Cl)ccc13)C2=O | 4820 | 43.2 nM | > 208000 nM | – |
| O=C(N/N=C/C=C/c1ccccc1)c1ccncc1 | – | – | – | IC50 (Plasmodium falciparum [1]): 66 nM |
| O=C(O)c1ccc2c(c1)C(=O)N(CCNc1ccnc3cc(Cl)ccc13)C2=O | 601 | 424 nM | > 253000 nM | – |
| O=C(N/N=C/c1c(O)ccc2ccccc12)c1ccncc1 | – | – | – | IC50 (Plasmodium falciparum [4]): 42.2 nM |
| O=C(NN1C(=O)c2ccc(C(=O)OCCCNc3ccnc4cc(Cl)ccc34)cc2C1=O)c1ccncc1 | 50 | 3770 nM | > 189000 nM | – |
| O=C(O)c1ccc2c(c1)C(=O)N(CCCCNc1ccnc3cc(Cl)ccc13)C2=O | 789 | 50.8 nM | – | – |
| O=C(NNC(=O)c1ccc2c(c1)C(=O)N(CCCCNc1ccnc3cc(Cl)ccc13)C2=O)c1ccncc1 | 627 | 26.3 nM | – | – |
| O=C(NCCCCCCNc1ccnc2cc(Cl)ccc12)c1ccc2c(c1)C(=O)N(NC(=O)c1ccncc1)C2=O | 2900 | 11.5 nM | – | log K (Heme [5]): 6.66; log K (Heme [6]): 6.39 |
| O=C(NCCCCCCCCNc1ccnc2cc(Cl)ccc12)c1ccc2c(c1)C(=O)N(NC(=O)c1ccncc1)C2=O | 1790 | 93.5 nM | > 167000 nM | – |
| O=C(NN1C(=O)c2ccc(C(=O)OCCNc3ccnc4cc(Cl)ccc34)cc2C1=O)c1ccncc1 | 239 | 812 nM | > 194000 nM | – |
| O=C(NNC(=O)c1ccc2c(c1)C(=O)N(CCCCCCNc1ccnc3cc(Cl)ccc13)C2=O)c1ccncc1 | 12.7 | > 10000 nM | – | – |
| O=C(NN1C(=O)c2ccc(N3CCN(c4ccnc5cc(Cl)ccc45)CC3)cc2C1=O)c1ccncc1 | 338 | 1300 nM | > 438000 nM | – |
| O=C(NCCCCNc1ccnc2cc(Cl)ccc12)c1ccc2c(c1)C(=O)N(NC(=O)c1ccncc1)C2=O | 58.1 | 253 nM | – | – |
